Where two headings read alike, the source gives them in different places.
Key:
Assay in all cases: biochemical
Design in all cases: Eurofins KinaseProfiler full panel at Km ATP, residual kinase activity (%) relative to DMSO
[1] = target: T1, PI3 Kinase (p110a(E545K)/p85a)(m) (Mus musculus, UniProt P42337, E545K)
T1 construct: gene Pik3ca
Summary of the method: (§1)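 Two 10 µM single-concentration screens were run: a competition-binding screen, in which DNA-tagged kinase bound to immobilized ligands was quantified by qPCR, and a radiometric activity panel at Km ATP. Each is expressed as residual kinase activity (%).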

Rsk1(h) = target: T2, Rsk1(h) (Homo sapiens, UniProt Q15418)
T2 construct: gene RPS6KA1
Summary of the method: as §1

Fyn(h) = Fyn(h) (Homo sapiens, UniProt P06241)
Fyn(h), sequence (P06241 whole entry): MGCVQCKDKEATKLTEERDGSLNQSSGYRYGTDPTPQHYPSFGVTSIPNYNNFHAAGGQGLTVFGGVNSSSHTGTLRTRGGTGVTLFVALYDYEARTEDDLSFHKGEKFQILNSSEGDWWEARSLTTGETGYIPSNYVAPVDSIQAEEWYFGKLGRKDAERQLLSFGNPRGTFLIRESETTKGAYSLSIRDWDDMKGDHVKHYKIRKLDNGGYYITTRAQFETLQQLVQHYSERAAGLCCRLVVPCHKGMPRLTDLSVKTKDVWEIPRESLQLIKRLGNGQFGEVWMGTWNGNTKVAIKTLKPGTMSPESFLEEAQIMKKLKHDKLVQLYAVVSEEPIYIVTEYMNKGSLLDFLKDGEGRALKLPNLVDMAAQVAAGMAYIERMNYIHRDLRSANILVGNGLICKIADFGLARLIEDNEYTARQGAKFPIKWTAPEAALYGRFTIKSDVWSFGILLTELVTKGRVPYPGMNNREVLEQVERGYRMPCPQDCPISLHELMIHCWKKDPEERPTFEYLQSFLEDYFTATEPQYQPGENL
Summary of the method: as §1

FGFR1(h) = FGFR1(h) (Homo sapiens, UniProt P11362)
FGFR1(h), sequence (P11362 whole entry): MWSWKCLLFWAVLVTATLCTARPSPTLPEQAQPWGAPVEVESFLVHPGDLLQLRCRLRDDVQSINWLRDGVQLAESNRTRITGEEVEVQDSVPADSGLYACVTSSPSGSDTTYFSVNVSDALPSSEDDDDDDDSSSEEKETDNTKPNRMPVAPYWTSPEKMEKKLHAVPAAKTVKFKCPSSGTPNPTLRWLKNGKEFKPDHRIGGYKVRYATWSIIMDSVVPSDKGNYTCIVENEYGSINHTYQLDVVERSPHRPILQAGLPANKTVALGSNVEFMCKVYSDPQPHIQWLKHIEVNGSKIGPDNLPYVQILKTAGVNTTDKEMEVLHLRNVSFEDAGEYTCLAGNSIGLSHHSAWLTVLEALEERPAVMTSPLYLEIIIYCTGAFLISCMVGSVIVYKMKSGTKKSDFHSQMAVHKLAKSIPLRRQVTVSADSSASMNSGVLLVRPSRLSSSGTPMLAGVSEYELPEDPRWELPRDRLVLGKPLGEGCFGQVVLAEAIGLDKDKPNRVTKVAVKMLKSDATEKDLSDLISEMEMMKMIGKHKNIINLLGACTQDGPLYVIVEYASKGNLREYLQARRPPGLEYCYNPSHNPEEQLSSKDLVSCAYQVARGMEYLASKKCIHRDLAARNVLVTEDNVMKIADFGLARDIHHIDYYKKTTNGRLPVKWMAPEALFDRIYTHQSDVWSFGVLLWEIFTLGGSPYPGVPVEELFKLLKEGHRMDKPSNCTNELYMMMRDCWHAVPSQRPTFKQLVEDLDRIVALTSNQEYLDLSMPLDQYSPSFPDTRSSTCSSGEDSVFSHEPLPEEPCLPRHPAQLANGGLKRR
Summary of the method: as §1

CDK16/cyclinY(h) = CDK16/cyclinY(h) (Homo sapiens, UniProt Q00536)
Summary of the method: as §1

NUAK2(h) = target: T3, NUAK2(h) (Homo sapiens, UniProt Q9H093)
T3 sequence (Q9H093 1-628): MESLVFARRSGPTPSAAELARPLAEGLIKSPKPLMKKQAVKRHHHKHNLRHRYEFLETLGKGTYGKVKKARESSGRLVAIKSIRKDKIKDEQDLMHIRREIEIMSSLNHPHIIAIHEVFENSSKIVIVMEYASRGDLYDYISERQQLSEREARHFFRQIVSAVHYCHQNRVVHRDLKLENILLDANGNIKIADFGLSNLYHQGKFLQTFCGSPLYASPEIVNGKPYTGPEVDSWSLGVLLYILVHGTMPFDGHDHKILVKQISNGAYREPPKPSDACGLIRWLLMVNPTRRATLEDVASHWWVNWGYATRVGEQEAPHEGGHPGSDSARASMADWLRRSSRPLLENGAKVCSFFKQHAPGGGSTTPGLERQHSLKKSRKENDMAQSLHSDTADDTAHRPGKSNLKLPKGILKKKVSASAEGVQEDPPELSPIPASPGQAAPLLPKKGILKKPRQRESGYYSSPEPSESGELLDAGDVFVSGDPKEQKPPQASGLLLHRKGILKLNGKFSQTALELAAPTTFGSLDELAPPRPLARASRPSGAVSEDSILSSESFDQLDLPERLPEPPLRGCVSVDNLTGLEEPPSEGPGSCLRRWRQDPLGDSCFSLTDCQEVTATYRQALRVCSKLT
Summary of the method: as §1

PRKG2(h) = target: T4, PRKG2(h) (Homo sapiens, UniProt Q13237)
T4 sequence (Q13237 1-762): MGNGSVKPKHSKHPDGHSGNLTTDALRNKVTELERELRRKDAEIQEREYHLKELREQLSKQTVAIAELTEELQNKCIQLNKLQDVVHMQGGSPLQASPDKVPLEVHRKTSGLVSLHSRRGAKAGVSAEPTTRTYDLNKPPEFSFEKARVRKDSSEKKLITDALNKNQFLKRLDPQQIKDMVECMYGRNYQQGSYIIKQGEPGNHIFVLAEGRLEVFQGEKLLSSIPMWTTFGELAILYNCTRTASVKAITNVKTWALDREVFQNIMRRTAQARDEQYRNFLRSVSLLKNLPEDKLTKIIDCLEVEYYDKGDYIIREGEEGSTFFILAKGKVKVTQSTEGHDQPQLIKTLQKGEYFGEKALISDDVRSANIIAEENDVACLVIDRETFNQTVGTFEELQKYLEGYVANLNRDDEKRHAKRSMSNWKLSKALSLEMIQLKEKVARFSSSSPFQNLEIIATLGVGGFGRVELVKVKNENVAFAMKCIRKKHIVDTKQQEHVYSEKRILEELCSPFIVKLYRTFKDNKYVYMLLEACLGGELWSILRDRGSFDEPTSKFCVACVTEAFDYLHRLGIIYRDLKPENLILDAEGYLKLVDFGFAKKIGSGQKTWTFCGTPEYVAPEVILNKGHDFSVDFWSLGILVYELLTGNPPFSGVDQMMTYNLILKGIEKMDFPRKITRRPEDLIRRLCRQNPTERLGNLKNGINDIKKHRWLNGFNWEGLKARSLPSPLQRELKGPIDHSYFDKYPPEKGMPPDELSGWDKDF
Summary of the method: as §1

STK39(h) = STK39(h) (Homo sapiens, UniProt Q9UEW8)
Summary of the method: as §1

CRIK(h) = target: T5, CRIK(h) (Homo sapiens, UniProt O14578)
T5 construct: gene CIT
T5 sequence (O14578 whole entry): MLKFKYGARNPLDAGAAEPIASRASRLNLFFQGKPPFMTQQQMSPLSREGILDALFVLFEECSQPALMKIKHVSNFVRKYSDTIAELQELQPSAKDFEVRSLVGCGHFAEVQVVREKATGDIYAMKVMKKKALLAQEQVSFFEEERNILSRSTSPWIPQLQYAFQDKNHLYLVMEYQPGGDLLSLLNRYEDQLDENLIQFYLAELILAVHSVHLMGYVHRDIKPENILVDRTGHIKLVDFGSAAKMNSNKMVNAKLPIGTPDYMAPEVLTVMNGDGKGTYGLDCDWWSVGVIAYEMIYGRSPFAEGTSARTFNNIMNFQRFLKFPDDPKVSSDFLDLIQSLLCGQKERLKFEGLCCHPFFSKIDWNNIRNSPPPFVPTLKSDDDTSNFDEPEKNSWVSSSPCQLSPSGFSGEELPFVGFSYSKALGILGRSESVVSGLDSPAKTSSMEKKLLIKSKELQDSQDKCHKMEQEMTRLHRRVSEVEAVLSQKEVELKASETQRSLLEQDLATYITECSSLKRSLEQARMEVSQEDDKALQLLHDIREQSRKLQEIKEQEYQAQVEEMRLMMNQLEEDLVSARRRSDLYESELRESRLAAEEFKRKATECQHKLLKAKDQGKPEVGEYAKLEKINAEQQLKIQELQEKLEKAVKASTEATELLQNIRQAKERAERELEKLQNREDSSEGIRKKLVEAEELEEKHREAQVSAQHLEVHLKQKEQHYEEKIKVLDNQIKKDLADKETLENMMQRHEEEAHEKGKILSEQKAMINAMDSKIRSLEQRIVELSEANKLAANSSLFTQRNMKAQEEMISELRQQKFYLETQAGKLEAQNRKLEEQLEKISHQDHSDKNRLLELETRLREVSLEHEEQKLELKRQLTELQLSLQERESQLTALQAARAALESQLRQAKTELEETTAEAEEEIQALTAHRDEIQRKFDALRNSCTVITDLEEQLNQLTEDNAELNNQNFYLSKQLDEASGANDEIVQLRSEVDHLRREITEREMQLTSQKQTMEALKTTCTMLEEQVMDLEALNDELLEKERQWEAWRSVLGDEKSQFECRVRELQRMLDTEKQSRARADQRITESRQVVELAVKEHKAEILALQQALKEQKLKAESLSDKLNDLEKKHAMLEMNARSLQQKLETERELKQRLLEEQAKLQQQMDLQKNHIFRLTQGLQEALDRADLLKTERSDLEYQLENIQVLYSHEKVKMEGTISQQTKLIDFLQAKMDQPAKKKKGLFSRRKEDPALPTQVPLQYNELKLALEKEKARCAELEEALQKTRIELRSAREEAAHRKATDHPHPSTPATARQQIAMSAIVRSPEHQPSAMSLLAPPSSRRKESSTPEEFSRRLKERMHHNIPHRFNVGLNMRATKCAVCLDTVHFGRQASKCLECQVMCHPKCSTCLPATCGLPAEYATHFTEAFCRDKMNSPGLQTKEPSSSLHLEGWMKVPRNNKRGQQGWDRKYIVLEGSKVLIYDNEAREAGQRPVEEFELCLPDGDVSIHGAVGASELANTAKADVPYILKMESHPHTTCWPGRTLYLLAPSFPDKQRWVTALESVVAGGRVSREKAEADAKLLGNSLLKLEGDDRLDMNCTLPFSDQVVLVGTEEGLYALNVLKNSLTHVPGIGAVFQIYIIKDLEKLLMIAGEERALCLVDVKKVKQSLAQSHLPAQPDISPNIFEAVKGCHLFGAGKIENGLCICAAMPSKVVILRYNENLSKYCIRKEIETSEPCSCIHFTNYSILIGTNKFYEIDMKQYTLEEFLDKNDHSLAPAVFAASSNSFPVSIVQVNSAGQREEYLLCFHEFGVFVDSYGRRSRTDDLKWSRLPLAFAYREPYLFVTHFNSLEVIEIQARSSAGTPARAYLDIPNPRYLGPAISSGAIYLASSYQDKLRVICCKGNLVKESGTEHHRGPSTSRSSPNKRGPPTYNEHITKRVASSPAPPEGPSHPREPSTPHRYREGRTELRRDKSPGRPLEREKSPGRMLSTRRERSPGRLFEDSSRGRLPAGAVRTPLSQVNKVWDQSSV
Summary of the method: as §1

Lyn(m) = Lyn(m) (Mus musculus, UniProt P25911)
Lyn(m), sequence (P25911 whole entry): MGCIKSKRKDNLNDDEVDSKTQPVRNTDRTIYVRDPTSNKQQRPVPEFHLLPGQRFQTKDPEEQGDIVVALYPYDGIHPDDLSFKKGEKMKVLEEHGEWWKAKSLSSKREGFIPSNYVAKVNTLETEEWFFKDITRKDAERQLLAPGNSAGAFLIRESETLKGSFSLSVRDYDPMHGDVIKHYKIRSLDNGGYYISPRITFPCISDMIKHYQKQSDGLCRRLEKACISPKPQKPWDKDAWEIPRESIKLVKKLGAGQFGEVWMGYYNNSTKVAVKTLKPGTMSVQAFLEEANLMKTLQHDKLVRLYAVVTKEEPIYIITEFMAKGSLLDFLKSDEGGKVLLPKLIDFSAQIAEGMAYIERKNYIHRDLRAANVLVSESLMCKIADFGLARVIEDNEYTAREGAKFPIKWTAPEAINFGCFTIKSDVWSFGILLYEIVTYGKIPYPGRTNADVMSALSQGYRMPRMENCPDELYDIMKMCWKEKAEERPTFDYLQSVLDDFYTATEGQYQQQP
Summary of the method: as §1

TYK2(h) = TYK2(h) (Homo sapiens, UniProt P29597)
TYK2(h), sequence (P29597 whole entry): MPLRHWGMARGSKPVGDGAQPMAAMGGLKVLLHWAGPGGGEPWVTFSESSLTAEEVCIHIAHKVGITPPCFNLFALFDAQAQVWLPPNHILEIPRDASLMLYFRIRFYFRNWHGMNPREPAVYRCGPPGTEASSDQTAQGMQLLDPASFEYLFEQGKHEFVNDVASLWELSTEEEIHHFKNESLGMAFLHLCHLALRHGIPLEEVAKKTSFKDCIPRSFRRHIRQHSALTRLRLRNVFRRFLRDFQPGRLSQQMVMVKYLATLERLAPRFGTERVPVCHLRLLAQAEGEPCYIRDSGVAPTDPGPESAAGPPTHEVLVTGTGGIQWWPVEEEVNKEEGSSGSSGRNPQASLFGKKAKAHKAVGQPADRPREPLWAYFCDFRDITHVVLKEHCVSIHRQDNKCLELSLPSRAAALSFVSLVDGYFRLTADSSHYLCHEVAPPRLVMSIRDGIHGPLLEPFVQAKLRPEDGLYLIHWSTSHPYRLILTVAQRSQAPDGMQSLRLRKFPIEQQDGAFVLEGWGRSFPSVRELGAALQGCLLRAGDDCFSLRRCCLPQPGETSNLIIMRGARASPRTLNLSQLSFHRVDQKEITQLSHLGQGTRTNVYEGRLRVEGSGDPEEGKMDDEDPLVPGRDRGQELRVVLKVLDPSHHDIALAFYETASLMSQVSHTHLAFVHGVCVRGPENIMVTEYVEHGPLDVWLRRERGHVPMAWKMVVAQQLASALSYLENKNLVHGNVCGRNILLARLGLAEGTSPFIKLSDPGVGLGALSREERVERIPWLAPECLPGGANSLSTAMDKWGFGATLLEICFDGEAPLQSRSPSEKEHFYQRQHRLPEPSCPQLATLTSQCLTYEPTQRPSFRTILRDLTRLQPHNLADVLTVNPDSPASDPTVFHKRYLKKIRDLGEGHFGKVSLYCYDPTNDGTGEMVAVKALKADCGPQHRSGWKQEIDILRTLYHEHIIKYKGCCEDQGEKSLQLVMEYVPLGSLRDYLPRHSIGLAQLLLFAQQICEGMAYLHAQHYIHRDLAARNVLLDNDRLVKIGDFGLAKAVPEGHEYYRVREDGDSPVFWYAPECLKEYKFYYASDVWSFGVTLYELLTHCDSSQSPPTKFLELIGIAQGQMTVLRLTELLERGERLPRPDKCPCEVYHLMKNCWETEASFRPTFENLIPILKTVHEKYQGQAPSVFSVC
Summary of the method: as §1

[2] = read-out: Residual activity (%) Spautin-1 5aa
[3] = read-out: Residual activity (%) 5as
[4] = read-out: Residual activity (%) 5at
[5] = read-out: Residual activity (%) 5ay

## Fc1ccc(CNc2ncnc3ccc(F)cc23)cc1 [5aa, 6-Fluoro-N-(4-fluorobenzyl)-4-Quinazolinamine]
[1]; [2]
  remaining activity at 10 µM: 94%
Rsk1(h); [2]
  remaining activity at 10 µM: 102%
Fyn(h); [2]
  remaining activity at 10 µM: 63%
FGFR1(h); [2]
  remaining activity at 10 µM: 91%
CDK16/cyclinY(h); [2]
  remaining activity at 10 µM: 90%
NUAK2(h); [2]
  remaining activity at 10 µM: 121%
PRKG2(h); [2]
  remaining activity at 10 µM: 103%
STK39(h); [2]
  remaining activity at 10 µM: 75%
CRIK(h); [2]
  remaining activity at 10 µM: 90%
Lyn(m); [2]
  remaining activity at 10 µM: 81%
TYK2(h); [2]
  remaining activity at 10 µM: 109%

## Fc1ccc(CCNc2ncnc3ccc(F)cc23)cc1 [5as, 6-Fluoro-N-[2-(4-Fluorophenyl)Ethyl]-4-Quinazolinamine]
[1]; [3]
  remaining activity at 10 µM: 91%
Rsk1(h); [3]
  remaining activity at 10 µM: 110%
Fyn(h); [3]
  remaining activity at 10 µM: 61%
FGFR1(h); [3]
  remaining activity at 10 µM: 105%
CDK16/cyclinY(h); [3]
  remaining activity at 10 µM: 114%
NUAK2(h); [3]
  remaining activity at 10 µM: 112%
PRKG2(h); [3]
  remaining activity at 10 µM: 96%
STK39(h); [3]
  remaining activity at 10 µM: 100%
CRIK(h); [3]
  remaining activity at 10 µM: 101%
Lyn(m); [3]
  remaining activity at 10 µM: 91%
TYK2(h); [3]
  remaining activity at 10 µM: 86%

## Fc1ccc2ncnc(NCCc3ccc(Cl)cc3)c2c1 [5at, N-[2-(4-Chlorophenyl)Ethyl]-6-Fluoro-4-Quinazolinamine]
[1]; [4]
  remaining activity at 10 µM: 91%
Rsk1(h); [4]
  remaining activity at 10 µM: 103%
Fyn(h); [4]
  remaining activity at 10 µM: 75%
FGFR1(h); [4]
  remaining activity at 10 µM: 123%
CDK16/cyclinY(h); [4]
  remaining activity at 10 µM: 104%
NUAK2(h); [4]
  remaining activity at 10 µM: 117%
PRKG2(h); [4]
  remaining activity at 10 µM: 79%
STK39(h); [4]
  remaining activity at 10 µM: 91%
CRIK(h); [4]
  remaining activity at 10 µM: 89%
Lyn(m); [4]
  remaining activity at 10 µM: 77%
TYK2(h); [4]
  remaining activity at 10 µM: 84%

## COc1ccc2ncnc(Nc3cccc(F)c3)c2c1 [5ay, N-(3-Fluorophenyl)-6-Methoxy-4-Quinazolinamine]
[1]; [5]
  remaining activity at 10 µM: 91%
Rsk1(h); [5]
  remaining activity at 10 µM: 116%
Fyn(h); [5]
  remaining activity at 10 µM: 66%
FGFR1(h); [5]
  remaining activity at 10 µM: 81%
CDK16/cyclinY(h); [5]
  remaining activity at 10 µM: 81%
NUAK2(h); [5]
  remaining activity at 10 µM: 110%
PRKG2(h); [5]
  remaining activity at 10 µM: 113%
STK39(h); [5]
  remaining activity at 10 µM: 114%
CRIK(h); [5]
  remaining activity at 10 µM: 76%
Lyn(m); [5]
  remaining activity at 10 µM: 93%
TYK2(h); [5]
  remaining activity at 10 µM: 75%

Source: publication PMC7827406, “Structure–Activity Relationship (SAR) Study of Spautin-1 to Entail the Discovery of Novel NEK4 Inhibitors” (International Journal of Molecular Sciences, 2021)
